Reference: patent US20240109934A1, “ANTIBIOTICS WITH IMPROVED DRUG RESISTANCE PROFILE” (priority 2021, published 2024)
Values after ≈ are worked out from the molar mass of the structure shown. “Also recorded” adds a separate entry of the source. Where two headings read alike, the source gives them in different places.

Columns and labels:
[1] = system: multidrug-resistant clinical isolates of S. aureus; experiment: MIC against multidrug-resistant clinical isolates of S. aureus; format: cell-based; settings: for Cross-resistance with vancomycin: 29 clinical isolates of S. aureus; for MIC: Staphylococcus aureus
[2] = Pharmacokinetic assessment in mice; format: in vivo, C57BL/6 mice
Experimental: FIG. 3. A). Pharmacokinetic analysis of fusidic acid and FA-CP. […] The data are illustrated as the mean and represent the average of three independent experiments. The pharmacokinetic parameters illustrated above were calculated with a one-compartment model using a non-linear regression program (Phoenix WinNonlin Version 8.1, Certara USA Inc. Princeton NJ 08540 USA). B). S. aureus ATCC 29213 neutropenic thigh infection burden study. CD-1 mice were first rendered neutropenic with cyclophosphamide. Mice were injected on (Day-4 to Day-2) with 150 mg/kg and on (Day-1) with 100 mg/kg of cyclophosphamide, respectively. […] C). S. aureus (FA-32×-B) neutropenic thigh infection study. CD-1 mice were first rendered neutropenic with cyclophosphamide as described above. […] Drugs were formulated with 5% DMSO, 10% Tween 20, 85% PBS immediately before injection. The data shown as means±s.d. and statistical significance was determined by one-way ANOVA with Tukey's multiple comparisons. NS indicates not significant (P>0.05), **P<0.01, ****P<0.0001.
Pharmacokinetic Assessment of sodium fusidate and FA-CP (25). […] The compounds were formulated in 5% DMSO, 10% Tween 20, and 85% PBS. Mice were treated with sodium fusidate or FA-CP (25) (50 mg/kg) via intraperitoneal injection with three mice per time point (15, 30, 45, 60, 120, and 240 min). At specific time points, mice were sacrificed, blood was collected and centrifuged, and the serum was frozen at −80° C. until analysis. The proteins in a 10 μL aliquot of serum were precipitated by the addition of 50 μL acetonitrile with the addition of 10 μL of 1.6 ug/mL internal standard (sodium fusidate was the internal standard when measuring FA-CP (25) and FA-CP (25) was the internal standard when measuring sodium fusidate). The sample was then vortexed and centrifuged to remove the proteins. Supernatants were analyzed with the QTRAP 5500 LC/MS/MS system (Sciex) in the Metabolomics Laboratory of the Roy J. Carver Biotechnology center, University of Illinois at Urbana-Champaign. Software Analyst 1.6.2 was used for data acquisition and analysis. The 1200 Series HPLC System (Agilent Technologies) includes a degasser, an autosampler and a binary pump. The liquid chromatography separation was performed on an Agilent Zorbax SB-Aq column (4.6 mm×50 mm; 5 μm) with mobile phase A (0.1% formic acid in water) and mobile phase B (0.1% formic acid in acetonitrile). The flow rate was 0.3 mL/min. The linear gradient was as follows: 0-1 min: 95% A; 8-13 min: 0% A; 8.1-18.5 min: 95% A. The autosampler was set at 10° C. The injection volume was 5 μL. Mass spectra were acquired under negative electrospray ionization with a voltage of −4,500 V. The source temperature was 450° C. The curtain gas, ion source gas 1 and ion source gas 2 were 32, 60 and 60 psi, respectively. […] The limit of quantitation of (S/N=10) was 1 nM. Pharmacokinetic parameters were calculated with a one-compartment model using a nonlinear regression program (Phoenix WinNonlin Version 8.1; Certara USA).

S. aureus ATCC 29213 = experiment: Neutropenic thigh infection burden study, sensitive strain; format: in vivo; settings: neutropenic CD-1 mice, 50 mg/kg IP at 1, 2, 3 h post infection, burden at 24 h
S. aureus (FA-32×-B) = experiment: Neutropenic thigh infection burden study, FA-resistant strain; format: in vivo; settings: neutropenic CD-1 mice, FA-resistant strain (P406L), 50 mg/kg IP at 1, 2, 3 h, burden at 8 h
[3] = mice, 50 mg/kg intraperitoneal, serum, one-compartment model
[4] = female, C57BL/6, mouse, in vivo, ip, 50 mg/kg

CC(=O)O[C@H]1C[C@@]2(C)[C@@H](C[C@@H](O)[C@H]3[C@@]4(C)CC[C@@H](O)[C@@H](C)[C@@H]4CC[C@@]32C)/C1=C(\CCC=C(C)C)C(=O)O [FA, Fusidic acid]
Cross-resistance with vancomycin [1]: no cross-resistance with vancomycin | MIC ([1]; NRS3, S. aureus NRS3 (NARSA), read-out: MIC): 0.0625 µg/mL (≈ 0.121 µM) | MIC ([1]; NRS4, S. aureus NRS4 (NARSA), read-out: MIC): 0.0625 µg/mL (≈ 0.121 µM) | MIC ([1]; NRS17, S. aureus NRS17 (NARSA), read-out: MIC): 0.0625 µg/mL (≈ 0.121 µM) | MIC ([1]; NRS18, S. aureus NRS18 (NARSA), read-out: MIC): 0.125 µg/mL (≈ 0.242 µM) | MIC ([1]; NRS21, S. aureus NRS21 (NARSA), read-out: MIC): 0.0625 µg/mL (≈ 0.121 µM) | MIC ([1]; NRS22, S. aureus NRS22 (NARSA), read-out: MIC): 0.0625 µg/mL (≈ 0.121 µM) | MIC ([1]; NRS23, S. aureus NRS23 (NARSA), read-out: MIC): 0.125 µg/mL (≈ 0.242 µM) | MIC ([1]; NRS24, S. aureus NRS24 (NARSA), read-out: MIC): 0.0625 µg/mL (≈ 0.121 µM) | MIC ([1]; NRS26, S. aureus NRS26 (NARSA), read-out: MIC): 0.0625 µg/mL (≈ 0.121 µM) | MIC ([1]; NRS27, S. aureus NRS27 (NARSA), read-out: MIC): 0.125 µg/mL (≈ 0.242 µM) | MIC ([1]; NRS29, S. aureus NRS29 (NARSA), read-out: MIC): 0.125 µg/mL (≈ 0.242 µM) | MIC ([1]; NRS51, S. aureus NRS51 (NARSA), read-out: MIC): 0.0625 µg/mL (≈ 0.121 µM) | MIC ([1]; NRS68, S. aureus NRS68 (NARSA), read-out: MIC): 0.125 µg/mL (≈ 0.242 µM) | MIC ([1]; NRS73, S. aureus NRS73 (NARSA), read-out: MIC): 0.125 µg/mL (≈ 0.242 µM) | MIC ([1]; NRS74, S. aureus NRS74 (NARSA), read-out: MIC): 0.125 µg/mL (≈ 0.242 µM) | MIC ([1]; NRS76, S. aureus NRS76 (NARSA), read-out: MIC): 0.125 µg/mL (≈ 0.242 µM) | MIC ([1]; NRS77, S. aureus NRS77 (NARSA), no noted resistance, read-out: MIC): 0.0625 µg/mL (≈ 0.121 µM) | MIC ([1]; NRS382, S. aureus NRS382 (NARSA), read-out: MIC): 0.0625 µg/mL (≈ 0.121 µM) | MIC ([1]; NRS383, S. aureus NRS383 (NARSA), read-out: MIC): 0.125 µg/mL (≈ 0.242 µM) | MIC ([1]; NRS384, S. aureus NRS384 (NARSA), read-out: MIC): 0.125 µg/mL (≈ 0.242 µM) | MIC ([1]; S. aureus AR0561 (CDC), read-out: MIC): 0.125 µg/mL (≈ 0.242 µM) | MIC ([1]; S. aureus AR0562 (CDC), read-out: MIC): 0.125 µg/mL (≈ 0.242 µM) | MIC ([1]; S. aureus AR0563 (CDC), read-out: MIC): 0.125 µg/mL (≈ 0.242 µM) | MIC ([1]; S. aureus AR0564 (CDC), read-out: MIC): 0.125 µg/mL (≈ 0.242 µM) | MIC ([1]; S. aureus AR0565 (CDC), read-out: MIC): 0.0625 µg/mL (≈ 0.121 µM) | MIC ([1]; S. aureus AR0566 (CDC), read-out: MIC): 0.125 µg/mL (≈ 0.242 µM) | MIC ([1]; S. aureus AR0567 (CDC), read-out: MIC): 0.125 µg/mL (≈ 0.242 µM) | MIC ([1]; S. aureus AR0568 (CDC), read-out: MIC): 0.125 µg/mL (≈ 0.242 µM) | MIC ([1]; S. aureus AR0570 (CDC), read-out: MIC): 0.125 µg/mL (≈ 0.242 µM) | AUC ([2]; female, C57BL/6, mouse, in vivo, ip, mice, 50 mg/kg intraperitoneal, serum, one-compartment model, read-out: AUC (converted)): 9360 ng·h/mL | Cmax ([2]; female, C57BL/6, mouse, in vivo, ip, mice, 50 mg/kg intraperitoneal, serum, one-compartment model, read-out: Cmax): 11100 ng/mL | Tmax ([2]; female, C57BL/6, mouse, in vivo, ip, mice, 50 mg/kg intraperitoneal, serum, one-compartment model, read-out: Tmax (converted)): 5.4 min | CL_F [2, 3]: 89.0 mL/min/kg | K10_HL [2, 3]: 31.2 min | Bacterial burden in thigh (S. aureus ATCC 29213): Significant reductions in bacterial burden | Bacterial burden in thigh (S. aureus (FA-32×-B)): no efficacy

CC(=O)O[C@H]1C[C@@]2(C)[C@@H](C[C@@H](O)[C@H]3[C@@]4(C)CC[C@@H](O)[C@@H](C)[C@@H]4CC[C@@]32C)/C1=C(\CCC=C1CCCC1)C(=O)O [FA-CP, (Z)-2-((3R,4S,5S,8S,9S,10S,11R,13R,14S,16S)-16-acetoxy-3,11-dihydroxy-4,8,10,14-tetramethylhexadecahydro-17H-cyclopenta[a]phenanthren-17-ylidene)-5-cyclopentylidenepentanoic acid]
Cross-resistance with vancomycin [1]: no cross-resistance with vancomycin | MIC ([1]; NRS3, S. aureus NRS3 (NARSA)): 0.0625 µg/mL (≈ 0.115 µM) | MIC ([1]; NRS4, S. aureus NRS4 (NARSA)): 0.0625 µg/mL (≈ 0.115 µM) | MIC ([1]; NRS17, S. aureus NRS17 (NARSA)): 0.0625 µg/mL (≈ 0.115 µM) | MIC ([1]; NRS18, S. aureus NRS18 (NARSA)): 0.125 µg/mL (≈ 0.23 µM) | MIC ([1]; NRS21, S. aureus NRS21 (NARSA)): 0.0625 µg/mL (≈ 0.115 µM) | MIC ([1]; NRS22, S. aureus NRS22 (NARSA)): 0.0625 µg/mL (≈ 0.115 µM) | MIC ([1]; NRS23, S. aureus NRS23 (NARSA)): 0.125 µg/mL (≈ 0.23 µM) | MIC ([1]; NRS24, S. aureus NRS24 (NARSA)): 0.0625 µg/mL (≈ 0.115 µM) | MIC ([1]; NRS26, S. aureus NRS26 (NARSA)): 0.0625 µg/mL (≈ 0.115 µM) | MIC ([1]; NRS27, S. aureus NRS27 (NARSA)): 0.125 µg/mL (≈ 0.23 µM) | MIC ([1]; NRS29, S. aureus NRS29 (NARSA)): 0.125 µg/mL (≈ 0.23 µM) | MIC ([1]; NRS51, S. aureus NRS51 (NARSA)): 0.0625 µg/mL (≈ 0.115 µM) | MIC ([1]; NRS68, S. aureus NRS68 (NARSA)): 0.125 µg/mL (≈ 0.23 µM) | MIC ([1]; NRS73, S. aureus NRS73 (NARSA)): 0.125 µg/mL (≈ 0.23 µM) | MIC ([1]; NRS74, S. aureus NRS74 (NARSA)): 0.125 µg/mL (≈ 0.23 µM) | MIC ([1]; NRS76, S. aureus NRS76 (NARSA)): 0.125 µg/mL (≈ 0.23 µM) | MIC ([1]; NRS77, S. aureus NRS77 (NARSA), no noted resistance): 0.0625 µg/mL (≈ 0.115 µM) | MIC ([1]; NRS382, S. aureus NRS382 (NARSA)): 0.0625 µg/mL (≈ 0.115 µM) | MIC ([1]; NRS383, S. aureus NRS383 (NARSA)): 0.125 µg/mL (≈ 0.23 µM) | MIC ([1]; NRS384, S. aureus NRS384 (NARSA)): 0.125 µg/mL (≈ 0.23 µM) | MIC ([1]; S. aureus AR0561 (CDC)): 0.125 µg/mL (≈ 0.23 µM) | MIC ([1]; S. aureus AR0562 (CDC)): 0.125 µg/mL (≈ 0.23 µM) | MIC ([1]; S. aureus AR0563 (CDC)): 0.125 µg/mL (≈ 0.23 µM) | MIC ([1]; S. aureus AR0564 (CDC)): 0.125 µg/mL (≈ 0.23 µM) | MIC ([1]; S. aureus AR0565 (CDC)): 0.0625 µg/mL (≈ 0.115 µM) | MIC ([1]; S. aureus AR0566 (CDC)): 0.125 µg/mL (≈ 0.23 µM) | MIC ([1]; S. aureus AR0567 (CDC)): 0.125 µg/mL (≈ 0.23 µM) | MIC ([1]; S. aureus AR0568 (CDC)): 0.125 µg/mL (≈ 0.23 µM) | MIC ([1]; S. aureus AR0570 (CDC)): 0.125 µg/mL (≈ 0.23 µM) | AUC [2, 4]: 11700 ng·h/mL | CL_F [2, 4]: 71.3 mL/min/kg | Cmax [2, 4]: 9760 ng/mL | K10_HL [2, 4]: 19.0 min | Tmax [2, 4]: 26.4 min | Bacterial burden in thigh (S. aureus ATCC 29213): Significant reductions in bacterial burden | Bacterial burden in thigh (S. aureus (FA-32×-B)): reductions in bacterial burden; also recorded: in vivo efficacy
